Data published in ChEMBL document CHEMBL1201862, “PubChem BioAssay data set” (2004).
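Growth conditions: 96-well plates. Treatment: test compound, 48 hours, 5 concentrations. Analysis: linear interpolation between bracketing concentrations; unreached endpoints set to highest concentration. At the GI50, growth is halved.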 Calls of active or inactive are those of the source. Rule as the data show it: active = GI50 up to about 1.1 µM and inactive = higher.

Experiments:
Assay in all cases: NCI anticancer screen, dose series, 48 h
COLO 205 = system: COLO 205
HOP-62 = system: HOP-62
K562 = system: K562
MOLT-4 = system: MOLT-4
NCI-H226 = system: NCI-H226
NCI-H23 = system: NCI-H23
NCI-H522 = system: NCI-H522
OVCAR-4 = system: OVCAR-4
RXF 393 = system: RXF 393
SF-268 = system: SF-268
SF-295 = system: SF-295
SF-539 = system: SF-539
SK-MEL-2 = system: SK-MEL-2
SNB-75 = system: SNB-75
TK-10 = system: TK-10
CCRF-CEM = system: CCRF-CEM
DLD-1 = system: DLD-1
Malme-3M = system: Malme-3M
XF498 = system: XF498
DMS-114 = system: DMS-114

Measured: GI50

COC(=O)C1=C(OC(=O)/C(=C/c2ccc(Cl)cc2)c2ccc(Cl)cc2)C(C(=O)OC)[C@]2(O)[C@@H](C(=O)OC)[C@H]1C[C@@H](c1ccccc1)[C@@H]2C(=O)OC (stereo not given in full)
inactive: COLO 205 > 100 µM | HOP-62 32.7 µM | K562 91.6 µM | MOLT-4 2.22 µM | NCI-H226 > 100 µM | NCI-H23 > 100 µM | NCI-H522 3.85 µM | OVCAR-4 > 100 µM | RXF 393 > 100 µM | SF-268 > 100 µM | SF-295 29.6 µM | SF-539 > 100 µM | SK-MEL-2 > 100 µM | SNB-75 > 100 µM | TK-10 > 100 µM

COc1cc(/C=C(\C#N)C(N)=O)cc(Br)c1O
inactive: CCRF-CEM > 100 µM | DLD-1 92 µM | HOP-62 92.3 µM | MOLT-4 > 100 µM | Malme-3M > 100 µM | NCI-H226 > 100 µM | OVCAR-4 > 100 µM | RXF 393 > 100 µM | SF-268 > 100 µM | SF-295 > 100 µM | SF-539 > 100 µM | SK-MEL-2 > 100 µM | XF498 23.2 µM

CCCCN1C=CN2c3nc4cc(C)c(C)cc4n3C(C(=O)OC)=C(C(=O)OC)C12 (stereo not given)
inactive: CCRF-CEM > 100 µM | DLD-1 > 100 µM | DMS-114 > 100 µM | HOP-62 > 100 µM | K562 > 100 µM | MOLT-4 > 100 µM | Malme-3M > 100 µM | NCI-H23 > 100 µM | NCI-H522 > 100 µM | OVCAR-4 > 100 µM | RXF 393 > 100 µM | SF-268 > 100 µM | SF-295 > 100 µM | SF-539 > 100 µM | SK-MEL-2 > 100 µM | SNB-75 > 100 µM | TK-10 > 100 µM | XF498 > 100 µM

CC1SC(c2ccccc2)N(Nc2c3ccccc3nc3ccccc23)C1=O (stereo not given)
inactive: CCRF-CEM 69.8 µM | COLO 205 > 100 µM | DLD-1 59.2 µM | DMS-114 45.5 µM | HOP-62 > 100 µM | K562 40.6 µM | MOLT-4 28.9 µM | Malme-3M > 100 µM | NCI-H226 55.3 µM | NCI-H23 50.4 µM | NCI-H522 40 µM | OVCAR-4 > 100 µM | SF-268 > 100 µM | SF-295 69 µM | SF-539 > 100 µM | SK-MEL-2 > 100 µM | SNB-75 34.6 µM | XF498 > 100 µM

C/C=C/c1cc(=O)c([C@@H]2OC(=O)c3cc(OC)cc(OC)c32)co1 [VERMISTATIN]
inactive: CCRF-CEM 24.1 µM | COLO 205 22 µM | DMS-114 21.7 µM | HOP-62 53 µM | K562 33.8 µM | MOLT-4 38.6 µM | NCI-H226 60.4 µM | NCI-H23 29.6 µM | OVCAR-4 54.3 µM | RXF 393 42.2 µM | SF-268 43.5 µM | SF-295 39.5 µM | SF-539 26.7 µM | SK-MEL-2 28.5 µM | SNB-75 6.49 µM | TK-10 57.5 µM
